Reference: PubChem BioAssay AID1259407 (Chemical Carcinogenesis Research Information System (CCRIS), 2018)
The source made the active and inactive calls. No rule for the calls is given here.

Test system: CCRIS mutagenicity, Ames/micronucleus/aberration tests
Assay: CCRIS mutagenicity studies

In the case of `Cc1c2ccccc2c(C)c2c1ccc1ccccc12`, the mutagenic call (Test System: AMES SALMONELLA TYPHIMURIUM, Strain/Indicator: TA1535, Metabolic Activation: RAT, LIVER, S-9, AROCLOR 1254, Method: SPIRAL ASSAY) is reported as “inactive; negative”, the mutagenic call (Test System: AMES SALMONELLA TYPHIMURIUM, Strain/Indicator: TA1535, Metabolic Activation: RAT, LIVER, S-9, AROCLOR 1254, Method: STANDARD PLATE) is reported as “inactive; negative” and the mutagenic call (Test System: AMES SALMONELLA TYPHIMURIUM, Strain/Indicator: TA1537, Metabolic Activation: NONE, Method: SPIRAL ASSAY) is reported as “active; positive”. The mutagenic call (Test System: AMES SALMONELLA TYPHIMURIUM, Strain/Indicator: TA1537, Metabolic Activation: NONE, Method: STANDARD PLATE) was “active; positive”, the mutagenic call (Test System: AMES SALMONELLA TYPHIMURIUM, Strain/Indicator: TA1537, Metabolic Activation: RAT, LIVER, S-9, AROCLOR 1254, Method: SPIRAL ASSAY) was “active; positive” and the mutagenic call (Test System: AMES SALMONELLA TYPHIMURIUM, Strain/Indicator: TA1537, Metabolic Activation: RAT, LIVER, S-9, AROCLOR 1254, Method: STANDARD PLATE) was “active; positive”. For the same compound, the mutagenic call (Test System: AMES SALMONELLA TYPHIMURIUM, Strain/Indicator: TA1537, Metabolic Activation: RAT, LIVER, S-9, KC500 OR PHENOBARBITAL, Method: LIQUID SUSPENSION) was “active; positive”, the mutagenic call (Test System: AMES SALMONELLA TYPHIMURIUM, Strain/Indicator: TA1538, Metabolic Activation: RAT, LIVER, S-9, AROCLOR 1254, Method: STANDARD PLATE) was “active; positive” and the mutagenic call (Test System: CHINESE HAMSTER OVARY, Strain/Indicator: CHO-K1-BH4 (HGPRT), Metabolic Activation: RAT, LIVER, S-9, AROCLOR, Method: SUSPENSION/PLATE) was “active; positive”. For the same compound, the mutagenic call (Test System: CHINESE HAMSTER V-79, Strain/Indicator: V-79/6-THIOGUANINE, Metabolic Activation: NONE, Method: STANDARD PLATE) was “inactive; negative”, the mutagenic call (Test System: CHINESE HAMSTER V-79, Strain/Indicator: V-79/6-THIOGUANINE, Metabolic Activation: RAT, HEPATOCYTES, BUTYLATED HYDROXYANISOLE, Method: STANDARD PLATE) was “active; positive” and the mutagenic call (Test System: CHINESE HAMSTER V-79, Strain/Indicator: V-79/6-THIOGUANINE, Metabolic Activation: RAT, HEPATOCYTES, Method: STANDARD PLATE) was “active; positive”. The mutagenic call (Test System: CHINESE HAMSTER V-79, Strain/Indicator: V-79/6-THIOGUANINE, Metabolic Activation: RAT, LIVER, S-9, PHENOBARBITAL, Method: STANDARD PLATE) was “active; positive”, the mutagenic call (Test System: CHINESE HAMSTER V-79, Strain/Indicator: V-79/8-AZAGUANINE, Metabolic Activation: CELL-MEDIATED, Method: STANDARD PLATE) was “active; positive” and the mutagenic call (Test System: CHINESE HAMSTER V-79, Strain/Indicator: V-79/OUABAIN, Metabolic Activation: NONE, Method: STANDARD PLATE) was “inactive; negative”. For the same compound, the mutagenic call (Test System: CHINESE HAMSTER V-79, Strain/Indicator: V-79/OUABAIN, Metabolic Activation: RAT, HEPATOCYTES, BUTYLATED HYDROXYANISOLE, Method: STANDARD PLATE) was “active; positive”, the mutagenic call (Test System: CHINESE HAMSTER V-79, Strain/Indicator: V-79/OUABAIN, Metabolic Activation: RAT, HEPATOCYTES, Method: STANDARD PLATE) was “active; positive” and the mutagenic call (Test System: E. COLI, Strain/Indicator: WP2 UVRA, Metabolic Activation: HAMSTER, LIVER, S-9, AROCLOR 1254, Method: STANDARD PLATE) was “inactive; negative”. For the same compound, the mutagenic call (Test System: E. COLI, Strain/Indicator: WP2 UVRA, Metabolic Activation: HAMSTER, LIVER, S-9, Method: STANDARD PLATE) was “inactive; negative”, the mutagenic call (Test System: E. COLI, Strain/Indicator: WP2 UVRA, Metabolic Activation: MOUSE, LIVER, S-9, AROCLOR 1254, Method: STANDARD PLATE) was “inactive; negative” and the mutagenic call (Test System: E. COLI, Strain/Indicator: WP2 UVRA, Metabolic Activation: MOUSE, LIVER, S-9, Method: STANDARD PLATE) was “inactive; negative”. For the same compound, the mutagenic call (Test System: E. COLI, Strain/Indicator: WP2 UVRA, Metabolic Activation: NONE, Method: STANDARD PLATE) was “inactive; negative”, the mutagenic call (Test System: E. COLI, Strain/Indicator: WP2 UVRA, Metabolic Activation: RAT, LIVER, S-9, AROCLOR 1254, Method: STANDARD PLATE) was “inactive; negative” and the mutagenic call (Test System: E. COLI, Strain/Indicator: WP2 UVRA, Metabolic Activation: RAT, LIVER, S-9, Method: STANDARD PLATE) was “inactive; negative”. The mutagenic call (Test System: MOUSE LYMPHOMA, Strain/Indicator: L5178Y (TK+/TK-), Metabolic Activation: NONE, Method: SUSPENSION/PLATE) was “inactive; negative”, the mutagenic call (Test System: MOUSE LYMPHOMA, Strain/Indicator: L5178Y (TK+/TK-), Metabolic Activation: RAT, LIVER, S-9, AROCLOR 1254, Method: SUSPENSION/PLATE) was “active; positive” and the mutagenic call (Test System: MOUSE SPLENIC LYMPHOCYTES, Strain/Indicator: C57BL/6 (TK+/-)/C57BL/6 (HPRT), Metabolic Activation: NONE, Method: IN VIVO/SUSPENSION/PLATE) was “active; positive”. For the same compound, the mutagenic call (Test System: UDS MONKEY HEPATOCYTES, Strain/Indicator: THY INCORP, Metabolic Activation: AROCLOR 1254, Method: AUTORADIOGRAPHY) was “active; positive”, the mutagenic call (Test System: UDS MONKEY HEPATOCYTES, Strain/Indicator: THY INCORP, Metabolic Activation: NONE, Method: AUTORADIOGRAPHY) was “active; positive” and the mutagenic call (Test System: UDS MOUSE EPIDERMIS IN VIVO/IN VITRO, Strain/Indicator: HOS:HR-1/THYMIDINE INCORPORATION, Metabolic Activation: NONE, Method: LIQUID SCINTILLATION) was “active; positive”. The mutagenic call (Test System: UDS RAT HEPATOCYTES, Strain/Indicator: BROMODEOXYURIDINE INCORP, Metabolic Activation: NONE, Method: FLOW CYTOMETRIC ANALYSIS) was “active; positive”, the mutagenic call (Test System: UDS RAT HEPATOCYTES, Strain/Indicator: THY INCORP, Metabolic Activation: NONE, Method: AUTORADIOGRAPHY) was “active; positive” and the mutagenic call (Test System: UDS RODENT HEPATOCYTES, Strain/Indicator: THY INCORP (NON-S-PHASE), Method: AUTORADIOGRAPHY) was “active; positive”. The mutagenic call (Test System: UDS RODENT PRIMARY CELLS, Strain/Indicator: THY INCORP (NON-S-PHASE), Metabolic Activation: NONE, Method: AUTORADIOGRAPHY) was “active; positive”.
